Experiment [1] deals with Urease subunit alpha (Helicobacter pylori (strain ATCC 700392 / 26695), UniProt P69997). The experiment can be described thus: Urease Inhibition Assay. The following applies: pH 7.4; 4 °C. As for the experimental part:
(§1) Briefly, 50 mL broth cultures (2.0 × 10^8 CFU/mL) were centrifuged (5000g, 4°C)to collect the bacteria, and after washing twice with phosphate-buffered saline (pH 7.4), the H. pylori precipitation was stored at −80°C. H. pylori was returnedto room temperature, and after the addition of 3 mL of distilled water and protease inhibitors, sonication was performed for 60 s. Following centrifugation(15,000g, 4°C), the supernatant was desalted through SephadexG-25 column (PD-10 columns, Amersham-Pharmacia Biotech, Uppsala, Sweden). The resultant crude urease solution was added to an equal volume of glycerol and stored at 4°C until use in the experiment. The mixture, containing 25 μL (4U) of H. pylori urease (100 mM HEPES, pH 6.8) and 25 μL of the test compounds of various concentrations, was preincubated for 3 h at room temperature in a 96-well assay plate. After preincubation, 0.2 mL of 100 mM HEPES (pH 6.8) buffer containing 500 mM urea and 0.002% phenol red were added and incubated at 37°C.

In experiment [2] the target is Urease subunit alpha (Helicobacter pylori (strain J99 / ATCC 700824) (Campylobacter pylori J99), UniProt I0ZGT0+I0ZGT1). The experiment is described as follows: Urease Inhibition Assay. The settings on record: pH 7.4; 4 °C. As for the experimental part:
as §1

Sequence of Urease subunit alpha (Helicobacter pylori (strain J99 / ATCC 700824) (Campylobacter pylori J99), UniProt I0ZGT0+I0ZGT1) (I0ZGT1 whole entry): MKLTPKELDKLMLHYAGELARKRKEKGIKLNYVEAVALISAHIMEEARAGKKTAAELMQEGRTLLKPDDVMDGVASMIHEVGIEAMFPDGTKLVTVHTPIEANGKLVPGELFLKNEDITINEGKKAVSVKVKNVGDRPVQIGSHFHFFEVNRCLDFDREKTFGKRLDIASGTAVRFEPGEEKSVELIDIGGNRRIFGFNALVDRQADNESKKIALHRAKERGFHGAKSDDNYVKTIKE
Sequence of Urease subunit alpha (Helicobacter pylori (strain J99 / ATCC 700824) (Campylobacter pylori J99), UniProt I0ZGT0+I0ZGT1) (I0ZGT0 whole entry): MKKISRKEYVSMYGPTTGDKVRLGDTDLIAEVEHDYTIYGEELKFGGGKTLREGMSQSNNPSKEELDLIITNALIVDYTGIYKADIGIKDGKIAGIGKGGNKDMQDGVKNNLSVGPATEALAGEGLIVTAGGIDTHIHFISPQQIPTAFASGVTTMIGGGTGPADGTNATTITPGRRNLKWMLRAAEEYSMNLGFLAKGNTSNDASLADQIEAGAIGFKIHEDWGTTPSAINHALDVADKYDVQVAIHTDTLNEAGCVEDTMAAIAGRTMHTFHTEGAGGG
Sequence of Urease subunit alpha (Helicobacter pylori (strain ATCC 700392 / 26695), UniProt P69997) (P14916 whole entry): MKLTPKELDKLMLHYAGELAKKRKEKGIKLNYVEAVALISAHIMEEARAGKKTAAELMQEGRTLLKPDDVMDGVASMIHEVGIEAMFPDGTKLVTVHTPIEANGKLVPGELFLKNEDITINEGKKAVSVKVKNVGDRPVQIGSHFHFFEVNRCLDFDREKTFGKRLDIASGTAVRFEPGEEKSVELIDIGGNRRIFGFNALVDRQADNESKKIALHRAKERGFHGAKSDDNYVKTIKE
Sequence of Urease subunit alpha (Helicobacter pylori (strain ATCC 700392 / 26695), UniProt P69997) (P69997 whole entry): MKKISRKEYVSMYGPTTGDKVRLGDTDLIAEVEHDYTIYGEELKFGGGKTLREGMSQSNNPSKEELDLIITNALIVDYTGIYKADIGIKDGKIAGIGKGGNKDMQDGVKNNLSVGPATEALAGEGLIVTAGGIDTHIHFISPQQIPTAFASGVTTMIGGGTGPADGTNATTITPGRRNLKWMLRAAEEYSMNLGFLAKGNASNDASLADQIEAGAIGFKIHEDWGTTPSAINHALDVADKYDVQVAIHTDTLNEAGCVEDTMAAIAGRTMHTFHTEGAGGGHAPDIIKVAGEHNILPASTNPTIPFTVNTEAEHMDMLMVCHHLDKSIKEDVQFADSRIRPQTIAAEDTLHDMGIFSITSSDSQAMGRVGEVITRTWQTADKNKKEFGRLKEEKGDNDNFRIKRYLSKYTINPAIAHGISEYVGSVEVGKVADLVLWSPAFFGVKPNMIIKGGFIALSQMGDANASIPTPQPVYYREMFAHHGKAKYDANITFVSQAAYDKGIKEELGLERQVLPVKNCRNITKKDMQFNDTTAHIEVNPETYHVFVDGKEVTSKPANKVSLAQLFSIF

As a reminder, the IC50 is the concentration at which inhibition is half-maximal. As for `NCc1ccccc1`, the concentration for half-maximal inhibition (IC50) in experiment [1] was above 100 µM. The compound `Cc1cnc(C(=O)O)cn1` [5-Methylpyrazine-2-carboxylic acid] had an IC50 in experiment [2] above 100 µM. In experiment [1], `Cc1ccc(C(=O)O)cc1` [SAMPL4, O2] displayed a half-inhibitory concentration (IC50) above 100 µM. In experiment [2], `CC(=O)NO` [acetohydroxamic acid] yielded an IC50 of 42.5 µM.

The record behind these values is BindingDB's records for doi:10.3109/14756366.2011.599065 (Wuhan Textile University, 2012).
